Results as given in US11452781B2, “Method of preventing and treating type 1 diabetes, allograft rejection and lung fibrosis (by targeting the ATP/P2X7R axis)” (CHILDREN'S MEDICAL CENTER CORPORATION, priority 2013, dated 2022).
“Also recorded” adds a separate entry of the source.

Key:
[1] = test system: CD4+ and CD8+ T cells; test: IFN-γ production of CD4+ and CD8+ T cells with Bz-ATP; assay type: cell-based, mouse
[2] = test system: C57BL/6 mice transplanted with BALB/c islets; test: Allogeneic islet transplantation, BALB/c islets into diabetic C57BL/6 mice: graft survival; assay type: in vivo, mouse; conditions: oATP daily i.p. 14-15 days, rapamycin 0.1 mg/kg 10 days
[3] = test system: B6 recipients of BALB/c lung allografts; test: Mouse orthotopic lung transplant, BALB/c donor and C57BL/6 recipient; assay type: in vivo
Method: Orthotopic left lung transplants were performed as previously described {Bizargity, #22; Iken, #21}. Briefly, donor mice were anesthetized with ketamine and xylazine, intubated with a 22 G Angiocath, and ventilated with isoflurane/oxygen. Lungs were flushed with ice cold phosphate buffered saline, left lung harvested and cuffs placed in the pulmonary artery, pulmonary vein and bronchus. Recipient mice were anesthetized and ventilated with isoflurane/oxygen, and left lung transplants performed via a thoracotomy and implantation of the three-cuffed hilar structures. Transplanted lungs were harvested 15 to 60-70 days following transplantation.
Allografts were evaluated 15, 30, and 60-70 days after transplant.
Outcome Measures—In vivo assessment of transplanted lung function was performed by thoracic CT scan imaging and measuring peak airway pressures (PawP) as previously described {Bizargity, #22}. […] Flow cytometry and enzyme-linked immunosorbent spot assay (ELISPOT) for interferon (IFN)-γ and interleukin (IL)-4 were performed as previously described {Vergani, #25; Vergani, #9}.

[4] = test system: C57BL/6 splenocytes; test: In vitro alloimmune ELISPOT, C57BL/6 responder splenocytes vs irradiated BALB/c splenocytes; assay type: cell-based, mouse; conditions: selective P2X1R / P2X3R inhibitors
Source text: The effect of increasing doses of oATP on Th1/Th17 cytokine levels was next tested. A dose-dependent response was evident, in which oATP reduced the number of cells producing Th1 cytokines (IFN-γ and IL-2) and Th17 cytokines (IL-6 and IL-17). Because it has been reported that oATP may affect other P2XRs, the inventors made use of the availability of the selective P2X1R inhibitor NF 449 and of the selective P2X3R inhibitor NF 110. C57BL/6 splenocytes were stimulated with irradiated BALB/c splenocytes, and IFN-γ production was evaluated in the presence of these inhibitors.

[5] = test system: naïve CD4+ T-cells; test: ELISPOT, naïve CD4+ T cells stimulated with anti-CD3-Ig and anti-CD28-Ig; assay type: cell-based, mouse; conditions: for anti-CD3-Ig/anti-CD28-Ig-mediated IFN-γ production: 100 μM oATP combined with 50 μM NF-449 and 50 μM 5-BDBD
Method: The effect of P2X7R targeting was tested by treatment with oATP during T-cell activation. […] Similarly, in a T-cell proliferation assay, CFSE-labeled naïve CD4^+ T-cells were stimulated for 4 days with 0.5 μg/ml anti-CD3-Ig and anti-CD28-Ig; treatment with 100 μM oATP diminished CD4^+ T-cell proliferation (FIG. 5B, right panel) compared to controls (FIG. 5B, left panel).
To address the mechanisms underlying P2X7R targeting mediated inhibition of cardiac transplant rejection, the inventors analyzed the effect of P2X7R targeting on T-cell activation and Th1/Th17 differentiation in vitro. […] The effect of in vitro P2X7R targeting with oATP during CD4+ T-cell activation was tested. […] Second, in a T-cell proliferation assay, carboxyfluorescein diacetate succinimidyl ester-labeled naïve CD4+ T cells were stimulated for 96 hours with 0.5 μg/mL anti-CD3-Ig and anti-CD28-Ig, and treatment with 100 μM oATP diminished CD4+ T cell proliferation in comparison with controls. […] The inventors next tested the effect of in vitro P2X7R targeting during a Th1/Th17 generation and differentiation assay. […] P2X7R targeting with oATP inhibited Th0 conversion into both Th1 and Th17, as assessed by the percentage of IFN-γ+ and IL-17+ cells, respectively. The inventors show, therefore, that P2X7R targeting through oATP suppresses activation, proliferation, and Th1/Th17 differentiation of CD4+ T cells. The inventors then further investigated the role of P2X7R on T-cell activation and Th1/Th17 differentiation by genetic upregulation of P2X7R. P2X7R cDNA was transduced by using a pMY-IRES-GFP retroviral vector into CD4+ T cells (pmY-P2X7R CD4+ T cells), and upregulation of P2X7R expression was confirmed by Western blot. pmY-P2X7R CD4+ T cells were then challenged with anti-CD3-Ig/anti-CD28-Ig stimulation in an ELISPOT assay. […] In a Th1/Th17 generation assay, pmY-P2X7R CD4+ T cells seemed to display increased differentiation capacity in comparison with pmY-mock CD4+ T cells, as assessed by T-bet and ROR-γ expression.
(§1) Several key components of T-cell receptor signaling involved in the alloimmune response were examined, and the phosphorylation kinetics following in vitro anti-CD3-Ig/anti-CD28-Ig-mediated CD4+ T-cell activation was evaluated by using the Luminex assay. […] The inventors first confirmed that Colivelin (Col) was able to restore the activation-induced phosphorylation of STAT3 in a dose-dependent manner in oATP-treated CD4+ T cells by Western blotting. […] The effect of oATP and Colivelin on STAT3 phosphorylation and T-cell function was also evaluated following cardiac transplantation.

[6] = test system: PBMCs obtained from healthy control subjects; test: ELISPOT, human PBMCs challenged with allogeneic irradiated PBMCs; assay type: cell-based
[7] = test system: C57BL/6 mice transplanted with BALB/c hearts; assay type: in vivo, mouse; conditions: oATP-treated cardiac-transplanted mice
Method: The effect of P2X7R targeting in preventing cardiac transplant rejection was tested using the P2X7R inhibitor oATP.
The effect of P2X7R targeting in preventing cardiac transplant rejection was tested by using the P2X7R inhibitor oATP.

[8] = test system: STAT3; test: STAT3 phosphorylation in CD4+ T cells of cardiac-transplanted mice (Western blot); assay type: in vivo, mouse; conditions: 7 days after transplantation
Method: as §1

[9] = test system: STAT3; test: Phosphorylation of T-cell signaling molecules in activated CD4+ T cells (Luminex/Milliplex, Western blot); assay type: cell-based, mouse; conditions: Colivelin add-back, Western blot
Method: 60 minutes after anti-CD3-Ig and anti-CD28-Ig mediated activation, cells were lysed and the phosphorylation status of CREB, Erk, Akt, JNK, p38, p70 S6 Kinase, STAT3, and STAT5A/B was assessed using the Millipore Milliplex Cell Signaling Assay. […] Data were confirmed by western blot (FIG. 6D).
as §1

## Nc1ncnc2c1ncn2[C@@H]1O[C@H](COP(=O)(O)OP(=O)(O)OP(=O)(O)O)[C@@H](OC(=O)c2ccc(C(=O)c3ccccc3)cc2)[C@H]1O [Bz-ATP, benzoyl-ATP]
[1]; 1 mmol/L Bz-ATP, T cells from wildtype mice
  IFN-γ production: increased
[1]; T cells from P2X7R2/2 mice
  IFN-γ production: similarly stimulated

## CO[C@H]1C[C@@H]2CC[C@@H](C)[C@@](O)(O2)C(=O)C(=O)N2CCCC[C@H]2C(=O)O[C@H]([C@H](C)C[C@@H]2CC[C@@H](O)[C@H](OC)C2)CC(=O)[C@H](C)/C=C(\C)[C@@H](O)[C@@H](OC)C(=O)[C@H](C)C[C@H](C)/C=C/C=C/C=C/1C [Rapamycin]
[2]
  islet allograft mean survival time (MST): 19 days
[2]; listed as rapamycin
  islet allograft mean survival time (MST): 18 days

## Cc1ccc(C(=O)Nc2ccc(S(=O)(=O)O)c3cc(S(=O)(=O)O)cc(S(=O)(=O)O)c23)cc1NC(=O)c1cccc(NC(=O)Nc2cccc(C(=O)Nc3cc(C(=O)Nc4ccc(S(=O)(=O)O)c5cc(S(=O)(=O)O)cc(S(=O)(=O)O)c45)ccc3C)c2)c1 [suramin]
[3]; 15, 30 and ≥60 days after transplantation
  acute cellular rejection (ACR grade): reduction
[3]; 15 to ≥60 days
  lung function (PawP): improved

## O=C(Nc1cc(C(=O)Nc2ccc(S(=O)(=O)O)cc2S(=O)(=O)O)cc(C(=O)Nc2ccc(S(=O)(=O)O)cc2S(=O)(=O)O)c1)Nc1cc(C(=O)Nc2ccc(S(=O)(=O)O)cc2S(=O)(=O)O)cc(C(=O)Nc2ccc(S(=O)(=O)O)cc2S(=O)(=O)O)c1 [NF 449]
[4]
  alloantigen-mediated IFN-γ production: failed to modulate
[5]
  anti-CD3-Ig/anti-CD28-Ig-mediated IFN-γ production: further suppression

## COC[C@H](O)Cn1c(=O)cnn(-c2ccc(Cl)c(C(=O)NCC3(O)CCCCCC3)c2)c1=O [CE-224535]
[6]
  allo- and autoimmune responses ex vivo: inhibition

## O=C1CN=C(c2cccc(Br)c2)c2oc3ccccc3c2N1 [5-BDBD]
[5]
  anti-CD3-Ig/anti-CD28-Ig-mediated IFN-γ production: further suppression

## O=C(Nc1cc(C(=O)Nc2ccc(S(=O)(=O)O)cc2)cc(C(=O)Nc2ccc(S(=O)(=O)O)cc2)c1)Nc1cc(C(=O)Nc2ccc(S(=O)(=O)O)cc2)cc(C(=O)Nc2ccc(S(=O)(=O)O)cc2)c1 [NF 110]
[4]
  alloantigen-mediated IFN-γ production: failed to modulate

## Colivelin
[7]
  effect of Colivelin on oATP-mediated allograft survival: greatly abrogated the effect of oATP
[8]
  phosphorylated STAT3 in CD4+ T cells: reestablish STAT3 phosphorylation
[9]
  activation-induced phosphorylation of STAT3 in oATP-treated CD4+ T cells: restore
[5]; Colivelin added to oATP-treated cells
  reversal of oATP-mediated suppression of IFN-γ-producing cells: significantly revert; also recorded: partially reverted
